In patent US9125862B2, “Methods for the treatment of Prader-Willi-like syndrome or non-organic failure to thrive (NOFITT) feeding disorder using an agonist of the oxytocin receptor” (Institut National de la Sante et de la Rechereche Medicale …, priority 2010, dated 2015):

Experiments:
[1] = system: Magel2 KO neonates; assay: Injection of oxytocin or vasopressin in Magel2 KO neonates: rescue of feeding and survival; assay type: in vivo, mouse
Protocol: (§1) Three to 5 hours after delivery, wild type pups or pups issued from a cross between an heterozygote (+/−) male with wild type females were temporally removed (10 min) from their mother, weighted and given a single s.c. (in the ventral region at the level of floating ribs) injection (20 μl) of isotonic saline or 2 μg oxytocin (Phoenix Pharmaceuticals. Inc., Catalog No. 051-01) dissolved in isotonic saline (20 μl). […] Following the same protocol, we injected vasopressin (Phoenix Pharmaceuticals. Inc., Catalog No. 065-07) at different doses. At P2, pups were scarified to be genotyped.
The results obtained with the injection of SSR 126768A OTA let us think that we might restore a normal feeding behaviour in Magel2 KO newborns with an OT injection just after birth. Early neonatal manipulation of OT was reported in the literature without alterations of the postnatal development (Cushing, B. S., et Al., 2003; Yamamoto, Y., et al., 2004; Saito, O., et Al., 2007). Initially, 28 wild type newborns were injected with an isotonic saline (20 μl) and 4 of them died at P1. Another cohort of 28 wild type newborns, […] on hypothalamic nuclei one hour after the injection (Cushing, B. S., et Al., 2003; Yamamoto, Y., et al., 2004). We then decided to inject 2 μg of OT in Magel2 KO and wild type newborns, 3 to 5 hours after birth, the time when wild type newborns started to suckle but not the mutant neonates. […] The level of lethality is similar after an injection of saline solution (4/28 dead pups) or oxytocin (3/28 dead pups) and is in the range of lethality normally observed in wild type cohorts. In a second step, ten litters including a total of 37 wild type and 40 Magel2 KO neonates, were injected with an oxytocin solution. At P2, we observed that 95% (35/37) of wild type and 93% (37/40) of Magel2 mutant newborns survived with milk previously detected in their stomach at P1. In parallel, we controlled that the rescue of Magel2 KO neonates was specifically due to the oxytocin injection and not to the injection stress and/or handling of neonates. […]

[2] = system: adult patients with PWS; assay: Eating behaviour scoring after intranasal administration; assay type: in vivo, human
Description: The behaviour of the patients was carefully monitored, scored daily by the team psychologist, and documented on the case report form for the two days before drug administration, on the half-day following administration (early effects) and over the two days following drug administration (late effects). Both the staff and the rater were unaware of treatment status. There are currently no validated grids that evaluate the specific behavioural features of patients with PWS that they particularly wanted to study, i.e. tendencies towards isolation, sadness, and depression, self-depreciation, self-mutilation, conflicts with others, disruptive behaviour, interest in friendship, interest in love affairs, and trust of others. […] The patients were well known to the team but the mean behavior status was re-evaluated during the first week of admission using the same grid. The behavioural features of the patients were scored as unchanged, moderately changed, or severely changed. […] Eating behaviour was also scored using three categories: usual, better than usual or worse, based on the analysis of each meal. The following were evaluated: amount of food intake per meal, amount of food requested per meal, duration of meal, and behaviour before/during/after the meal. To evaluate the early effect of OT, we analysed only the first meal after drug administration.

[3] = system: wild type newborns; assay: Injection of oxytocin in wild type neonates: lethality and survival; assay type: in vivo, mouse
Protocol: as §1
The results obtained with the injection of SSR 126768A OTA let us think that we might restore a normal feeding behaviour in Magel2 KO newborns with an OT injection just after birth. Early neonatal manipulation of OT was reported in the literature without alterations of the postnatal development (Cushing, B. S., et Al., 2003; Yamamoto, Y., et al., 2004; Saito, O., et Al., 2007). Initially, 28 wild type newborns were injected with an isotonic saline (20 μl) and 4 of them died at P1. Another cohort of 28 wild type newborns, […] on hypothalamic nuclei one hour after the injection (Cushing, B. S., et Al., 2003; Yamamoto, Y., et al., 2004). […] At P2, we observed that 95% (35/37) of wild type and 93% (37/40) of Magel2 mutant newborns survived with milk previously detected in their stomach at P1. […]

CC[C@H](C)[C@@H]1NC(=O)[C@H](Cc2ccc(O)cc2)NC(=O)[C@@H](N)CSSC[C@@H](C(=O)N2CCC[C@H]2C(=O)N[C@@H](CC(C)C)C(=O)NCC(N)=O)NC(=O)[C@H](CC(N)=O)NC(=O)[C@H](CCC(N)=O)NC1=O [oxytocin]
newborns survived at P2 with milk in stomach at P1 ([1]; Magel2 mutant, 2 μg oxytocin s.c. 3 to 5 hours after birth, vehicle lethality 48.5% at P1): 93% | rescue of the death rate due to the feeding deficit ([1]; one single injection, 3-5 hours after birth): efficiently rescue the death rate | scores assessing eating behaviour, OT vs placebo group ([2]; intranasal 24 UI): No statistical difference | patients who did not feel hungry and slightly decreased their food intake ([2]; over the two days following intranasal administration, five patients, placebo 10%): 45% | level of lethality ([3]; s.c. oxytocin 2 μg in 20 μl NaCl 0.9%, wild type pups n=28, saline 4/28): 3/28 | newborns survived at P2 with milk in stomach at P1 ([3]; wild type, 2 μg oxytocin s.c. 3 to 5 hours after birth): 95%
